tested on: human primary T-cells, IL-2 stimulated proliferation (JAK-1 and JAK-3 dependent; reported as JAK3 activity); assay: Human primary T-cell proliferation stimulated by IL-2 (Example 3); format: cell-based; conditions: Homo sapiens, T-cell, tested under conditions described in Example 3 (IL-2 stimulated human primary T-cell proliferation); read-out: ability to inhibit JAK3 activity, IC50 range (Table V)
Procedure, shortened: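 Peripheral-blood human T-cells pre-activated via TCR/CD28, IL-2-starved overnight, then cultured 72 h at 37 °C with compound in Yssel's medium containing IL-2 (80 U/mL in cell suspension). Proliferation read as viable-cell ATP by CellTiter-Glo luminescence; reduction versus control taken as JAK pathway inhibition.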

Row | Molecule | IC50 [nM]
1 | COc1cc(Nc2ncc(C)c(Nc3ccc4oc(=O)[nH]c4c3)n2)ccc1Cl [Compound I-181, 5-[2-(4-Chloro-3-methoxy-phenylamino)-5-methyl-pyrimidin-4-ylamino]-3H-benzooxazol-2-one] | < 500
2 | Cc1cnc(Nc2ccc(Cl)c(OC(F)(F)F)c2)nc1Nc1ccc2oc(=O)[nH]c2c1 [Compound I-180, 5-[2-(4-Chloro-3-trifluoromethoxy-phenylamino)-5-methyl-pyrimidin-4-ylamino]-3H-benzooxazol-2-one] | < 500
3 | Cc1cnc(Nc2cccc(C(C)NCc3ccccc3)c2)nc1Nc1ccc2oc(=O)[nH]c2c1 (stereo not drawn) [Compound I-213, 5-(2-(3-(1-(benzylamino)ethyl)phenylamino)-5-methylpyrimidin-4-ylamino)benzo[d]oxazol-2(3H)-one] | < 500
4 | COC(=O)c1ccc(Nc2ncc(C)c(Nc3ccc4oc(=O)[nH]c4c3)n2)cc1C [Compound I-159, 2-Methyl-4-[5-methyl-4-(2-oxo-2,3-dihydro-benzooxazol-5-ylamino)-pyrimidin-2-ylamino]-benzoic acid methyl ester] | < 500
5 | Cc1cnc(Nc2cc(F)cc(Cl)c2)nc1Nc1ccc2oc(=O)[nH]c2c1 [Compound I-186, 5-[2-(3-Chloro-5-fluoro-phenylamino)-5-methyl-pyrimidin-4-ylamino]-3H-benzooxazol-2-one] | < 500
6 | COc1cc(Nc2ncc(C)c(Nc3ccc4oc(=O)[nH]c4c3)n2)cc(C(=O)N2CCOCC2)c1 [Compound I-254, 5-(2-(3-methoxy-5-(morpholine-4-carbonyl)phenylamino)-5-methylpyrimidin-4-ylamino)benzo[d]oxazol-2(3H)-one] | < 500
7 | COc1ccc(Nc2ncc(C)c(Nc3cc(C)c4oc(=O)[nH]c4c3)n2)cc1C [Compound I-429, 5-(2-(4-methoxy-3-methylphenylamino)-5-methylpyrimidin-4-ylamino)-7-methylbenzo[d]oxazol-2(3H)-one] | < 500
8 | Cc1cnc(Nc2cc(C)c(C)c(C)c2)nc1Nc1cc(F)c2oc(=O)[nH]c2c1 [Compound I-489, 7-fluoro-5-(5-methyl-2-(3,4,5-trimethylphenylamino)pyrimidin-4-ylamino)benzo[d]oxazol-2(3H)-one] | < 500
9 | Cc1ccc(Nc2ncc(C)c(Nc3ccc4oc(=O)[nH]c4c3)n2)cc1 [Compound I-421, 5-(2-(p-toluidino)-5-methylpyrimidin-4-ylamino)benzo[d]oxazol-2(3H)-one] | < 500
10 | Cc1cc(Nc2ncc(C)c(Nc3ccc4oc(=O)[nH]c4c3)n2)c(C)cc1Cl [Compound I-176, 5-[2-(4-Chloro-2,5-dimethyl-phenylamino)-5-methyl-pyrimidin-4-ylamino]-3H-benzooxazol-2-one] | 500 to 5000
11 | Cc1cnc(Nc2ccc(C(=O)NC3CC3)c(C(F)(F)F)c2)nc1Nc1ccc2oc(=O)[nH]c2c1 [Compound I-223, N-cyclopropyl-4-(5-methyl-4-(2-oxo-2,3-dihydrobenzo[d]oxazol-5-ylamino)pyrimidin-2-ylamino)-2-(trifluoromethyl)benzamide] | < 500
12 | Cc1cnc(Nc2ccc(N(C)[C@H]3CCCNC3)nc2)nc1Nc1ccc2oc(=O)[nH]c2c1 [II-103, (S)-5-(5-methyl-2-(6-(methyl(piperidin-3-yl)amino)pyridin-3-ylamino)pyrimidin-4-ylamino)benzo[d]oxazol-2(3H)-one] | < 500
13 | Cc1ccc(Nc2ncc(C)c(Nc3ccc4oc(=O)[nH]c4c3)n2)cc1C#N [Compound I-131, 2-Methyl-5-[5-methyl-4-(2-oxo-2,3-dihydro-benzooxazol-5-ylamino)-pyrimidin-2-ylamino]-benzonitrile] | < 500

same assay, conditions: tested under conditions described in Example 3 (IL-2 stimulated human primary T-cell proliferation); read-out: ability to inhibit JAK3 activity, IC50 range (Table V)

Row | Molecule | IC50 [nM]
14 | Cc1cnc(Nc2ccc(S(N)(=O)=O)cc2)nc1Nc1ccc2[nH]c(=O)oc2c1 [Compound I-99, N2-((4-aminosulfonyl)phenyl)-N4-(2-oxo-2,3-dihydrobenzo[d]oxazol-6-yl)-5-methylpyrimidine-2,4-diamine] | < 500
15 | N4-(benzo[d]oxazol-2(3H)-on-5-yl)-N2-(2-(bicyclo[2.2.1]heptan-2-ylmethyl)isoindolin-5-yl)-5-methylpyrimidine-2,4-diamine [III-11] | < 500
16 | Cc1cnc(Nc2cc(F)c(F)c(F)c2)nc1Nc1ccc2oc(=O)[nH]c2c1 [Compound I-408, 5-methyl-N4-(2-oxo-2,3-dihydro-1,3-benzoxazol-5-yl)-N2-(3,4,5-trifluoro)phenyl-2,4-pyrimidinediamine] | < 500
17 | Cc1cnc(Nc2ccc(S(C)(=O)=O)cc2)nc1Nc1ccc2c(c1)oc(=O)n2C [Compound I-66, N2-((4-methylsulfonyl)phenyl)-N4-(3-methyl-2-oxo-2,3-dihydrobenzo[d]oxazol-6-yl)-5-methylpyrimidine-2,4-diamine] | < 500
18 | CCOC(=O)N1CCN(c2cccc(Nc3ncc(C)c(Nc4ccc5oc(=O)[nH]c5c4)n3)c2)CC1 [Compound I-346, N2-[3-(4-ethoxycarbonyl)piperazino]phenyl-5-methyl-N4-(2-oxo-2,3-dihydro-1,3-benzoxazol-5-yl)-2,4-pyrimidinediamine] | < 500
19 | CS(=O)(=O)c1cccc(Nc2ncc(F)c(Nc3ccc4oc(=O)[nH]c4c3)n2)c1 [Compound I-20] | < 500
20 | Cc1ccc(Nc2ncc(F)c(Nc3ccc4c(c3)oc(=O)n4C)n2)cc1NS(C)(=O)=O [Compound I-86, N2-((3-methylsulfonylamino-4-methyl)phenyl)-N4-(3-methyl-2-oxo-2,3-dihydrobenzo[d]oxazol-6-yl)-5-fluoropyrimidine-2,4-diamine] | > 10000
21 | Cn1c(=O)oc2ccc(Nc3nc(Nc4cccc(NS(C)(=O)=O)c4)ncc3F)cc21 [Compound I-79, N2-((3-methylsulfonylamino)phenyl)-N4-(3-methyl-2-oxo-2,3-dihydrobenzo[d]oxazol-5-yl)-5-fluoropyrimidine-2,4-diamine] | 500 to 5000
22 | Cc1cnc(Nc2ccc(S(C)(=O)=O)cc2)nc1Nc1ccc2oc(=O)[nH]c2c1 [Compound I-17] | < 500
23 | Cc1cnc(Nc2ccc(-c3cccnc3)cc2)nc1Nc1ccc2oc(=O)[nH]c2c1 [Compound I-291, 5-methyl-N4-(2-oxo-2,3-dihydro-1,3-benzoxazol-5-yl)-N2-[4-(pyridin-3-yl)]phenyl-2,4-pyrimidinediamine] | < 500
24 | Cc1cnc(Nc2cc(F)cc(C(F)(F)F)c2)nc1Nc1ccc2oc(=O)[nH]c2c1 [Compound I-360, N2-(3-fluoro-5-trifluoromethyl)phenyl-5-methyl-N4-(2-oxo-2,3-dihydro-1,3-benzoxazol-5-yl)-2,4-pyrimidinediamine] | < 500
25 | CCc1cc(Nc2ncc(C)c(Nc3ccc4oc(=O)[nH]c4c3)n2)cc(C#N)c1Cl [Compound I-383, N2-(4-chloro-3-cyano-5-ethyl)phenyl-5-methyl-N4-(2-oxo-2,3-dihydro-1,3-benzoxazol-5-yl)-2,4-pyrimidinediamine] | 500 to 5000
26 | Cc1cnc(Nc2cc(F)cc(OC(C)(C)C#N)c2)nc1Nc1ccc2oc(=O)[nH]c2c1 [Compound I-416, N2-[3-(1-cyano-1-methyl)ethoxy-5-fluoro]phenyl-5-methyl-N4-(2-oxo-2,3-dihydro-1,3-benzoxazol-5-yl)-2,4-pyrimidinediamine] | < 500
27 | Cc1ccc(Nc2ncc(C)c(Nc3ccc4oc(=O)[nH]c4c3)n2)cc1Cl [Compound I-364, N2-(3-chloro-4-methyl)phenyl-5-methyl-N4-(2-oxo-2,3-dihydro-1,3-benzoxazol-5-yl)-2,4-pyrimidinediamine] | < 500
